Reference: ChEMBL document CHEMBL1155792, “QSAR prediction of inhibition of aldose reductase for flavonoids” (Bioorg Med Chem, 2008)

Each compound was assayed against Aldo-keto reductase family 1 member B1 (Rattus norvegicus, UniProt P07943) (assay: Inhibition of rat lens aldose reductase).

| Structure (SMILES) | IC50 [µM] |
| --- | --- |
| COc1cc(-c2cc(=O)c3c(O)c(OC)c(O)c(OC)c3o2)ccc1O [SUDACHITIN] | 4.47 |
| COc1c(OC)c(O)c2c(=O)cc(-c3ccc(O)cc3)oc2c1OC [XANTHOMICROL] | 0.537 |
| O=c1cc(-c2ccc(O)cc2)oc2ccc(O)cc12 | 5.25 |
| COc1c(O)c(O)c(O)c2c(=O)cc(-c3ccc(O)cc3)oc12 | 1.2 |
| COc1c(O)c(O)c(O)c2c(=O)cc(-c3ccccc3)oc12 | 8.13 |
| COc1cc(O)c2c(=O)cc(-c3cc(O)c(OC)cc3OC)oc2c1 | 316 |
| COc1cc2oc(-c3ccc(O)c(O)c3)c(OC)c(=O)c2c(O)c1O | 0.813 |
| COc1cc2oc(-c3ccc(O)cc3)cc(=O)c2c(O)c1OC [CIRSIMARITIN] | 1.41 |
| COc1cc(-c2cc(=O)c3c(O)c(OC)c(OC4O[C@H](CO)[C@@H](O)[C@H](O)[C@H]4O)c(OC)c3o2)ccc1O (some centres not stated) | 20.9 |
| COc1cc(O)c2c(=O)cc(-c3cc(OC)c(O)cc3OC)oc2c1 | 1000 |
| COc1cc2oc(-c3ccc(O)c(O)c3)cc(=O)c2c(O)c1OC [CIRSILIOL] | 0.17 |
| O=c1cc(-c2ccccc2O)oc2cc(O)ccc12 | 1.66 |
| COc1cc2oc(-c3ccc(O)c(O)c3)cc(=O)c2c(OC)c1O | 0.141 |
| COc1c(O)c(O)c2c(=O)cc(-c3ccc(O)cc3)oc2c1OC | 0.851 |
| COc1cc(-c2cc(=O)c3c(OC)c(O)c(OC)c(OC)c3o2)ccc1O | 6.31 |
| COc1c(OC)c(OC)c2c(=O)cc(-c3ccc(O)c(O)c3)oc2c1OC | 0.0324 |
| COc1cc(O)c2c(=O)cc(-c3ccc(O)c(O)c3)oc2c1OC | 0.0776 |
| COc1c(O)c(OC)c2c(=O)cc(-c3ccccc3)oc2c1OC | 288 |
| COc1cc(O)cc2oc(-c3ccccc3)cc(=O)c12 | 1000 |

| Structure (SMILES) | IC50 [µM] |
| --- | --- |
| COc1cc2oc(-c3ccc(OC4O[C@H](CO)[C@@H](O)[C@H](O)[C@H]4O)cc3)cc(=O)c2c(O)c1OC (some centres not stated) | 16.2 |
| COc1cc2oc(-c3ccc(O)c(O)c3)c(OC)c(=O)c2c(O)c1OC [CHRYSOSPLENOL D] | 0.348 |
| O=c1cc(-c2ccc(O)c(O)c2)oc2cc(O)c(O)c(O)c12 [6-HYDROXYLUTEOLIN] | 0.204 |
| COc1c(O)cc(OC)c2c(=O)cc(-c3ccc(O)c(O)c3)oc12 | 0.0741 |
| COc1c(OC(C)=O)c(OC(C)=O)c(OC(C)=O)c2c(=O)cc(-c3ccc(OC(C)=O)c(OC(C)=O)c3)oc12 | 0.302 |
| COc1c(-c2ccc(O)c(O)c2)oc2cc(O)c(O)c(O)c2c1=O | 0.0575 |
| COc1cc(-c2cc(=O)c3c(O)c(OC)c(OC)cc3o2)ccc1OC1O[C@H](CO)[C@@H](O)[C@H](O)[C@H]1O (some centres not stated) | 13.2 |
| COc1c(-c2ccc(O)c(O)c2)oc2c(OC)c(O)cc(O)c2c1=O | 0.24 |
| COc1cc2oc(-c3ccc(O)c(O)c3)c(OC)c(=O)c2c(OC)c1O | 0.302 |
| COc1cc(OC)c2c(=O)cc(-c3ccc(O)c(O)c3)oc2c1O | 0.162 |
| COc1c(O)cc(O)c2c(=O)cc(-c3ccc(O)c(O)c3)oc12 | 0.282 |
| COc1cc2oc(-c3ccc(O)c(O)c3)cc(=O)c2c(OC)c1OC | 0.0912 |
| COc1ccc(-c2cc(=O)c3c(O)c(OC)c(O)c(OC)c3o2)cc1OC | 29.5 |
| COc1c(O)c(O)c(O)c2c(=O)cc(-c3ccc(O)c(O)c3)oc12 | 0.12 |
| COc1cc(-c2cc(=O)c3c(OC)c(OC)c(OC)c(OC)c3o2)ccc1O | 18.6 |
| COc1c(O)c(O)c2c(=O)cc(-c3ccccc3)oc2c1OC | 8.39 |
| COc1cc(-c2cc(=O)c3c(O)c(OC)c(OC)c(OC)c3o2)ccc1O | 45.7 |
| COc1cc(-c2cc(=O)c3c(O)c(OC)c(OC)cc3o2)ccc1O [CIRSILENEOL] | 6.76 |
| COc1cc(O)c2c(=O)cc(-c3ccc(O)c(O)c3)oc2c1O | 0.229 |

| Structure (SMILES) | IC50 [µM] |
| --- | --- |
| COc1cc2oc(-c3ccc(O)c(O)c3)c(C(C)=O)c(=O)c2c(OC)c1OC | 8.91 |
| COc1cc(OC)c2c(=O)c(OC)c(-c3ccc(O)c(O)c3)oc2c1OC | 0.17 |
| COc1cc2oc(-c3ccc(O)c(O)c3)cc(=O)c2c(O)c1O | 0.302 |
| COc1cc2oc(-c3ccc(O)c(O)c3)c(OC)c(=O)c2c(OC)c1OC | 0.269 |
| COc1c(O)c(OC)c2c(=O)cc(-c3ccc(O)c(O)c3)oc2c1OC | 0.035 |
| COc1c(O)cc2oc(-c3ccc(O)c(O)c3)c(OC)c(=O)c2c1O [AXILLARIN] | 0.028 |
| C[C@H]1OC(Oc2c(-c3ccc(O)c(O)c3)oc3cc(O)cc(O)c3c2=O)[C@@H](O)[C@@H](O)[C@@H]1O (some centres not stated) | 1.17 |
| COc1cc2oc(-c3ccc(OC4O[C@H](CO)[C@@H](O)[C@H](O)[C@H]4O)c(O)c3)cc(=O)c2c(O)c1OC (some centres not stated) | 8.2 |
| COc1cc(-c2cc(=O)c3c(O)c(OC)c(O)c(OC)c3o2)ccc1OC1O[C@H](CO)[C@@H](O)[C@H](O)[C@H]1O (some centres not stated) | 18.2 |
| COc1c(OC)c(O)c2c(=O)cc(-c3ccc(O)c(O)c3)oc2c1OC [SIDERITIFLAVONE] | 0.0389 |
| COc1cc(-c2cc(=O)c3c(O)c(O)c(OC)c(OC)c3o2)ccc1O | 110 |
| COc1ccc(-c2cc(=O)c3c(O)c(OC)c(O)c(OC)c3o2)cc1 [NEVADENSIN] | 7.24 |
| COc1c(O)c(OC)c2oc(-c3ccc(O)cc3)cc(=O)c2c1O | 0.407 |
| COc1c(-c2ccc(O)c(O)c2)oc2c(OC)c(O)cc(OC)c2c1=O | 0.282 |
| COc1cc(-c2cc(=O)c3c(O)c(O)c(O)c(OC)c3o2)ccc1O | 1.2 |
| O=c1cc(-c2ccc(O)cc2O)oc2cc(O)ccc12 | 2.29 |
| COc1cc(OC)c2c(=O)cc(-c3ccc(O)c(O)c3)oc2c1OC | 0.0447 |
| COc1c(O)c(Cc2ccccc2)c2oc(-c3ccc(O)c(O)c3)cc(=O)c2c1O | 0.0339 |
| COc1c(O)c(O)c2c(=O)cc(-c3ccc(O)c(O)c3)oc2c1OC | 0.0646 |
